Blank lines part the entries; values can stand above or below the compound they belong to.
Key:
[1] = Activation of rat SK2 variant a transfected in human tsA201 cells coexpressing CaM/GFP in presence of Ca2+ by […]; format: cell-based
[2] = molecular target: Small conductance calcium-activated potassium channel protein 3 (Homo sapiens, UniProt Q9UGI6); assay: Positive modulation of SK3 (unknown origin)
[3] = molecular target: T1, Small conductance calcium-activated potassium channel protein 1 (Homo sapiens, UniProt Q92952); assay: Positive modulation of SK1 (unknown origin)
[4] = molecular target: T2, Small conductance calcium-activated potassium channel protein 2 (Homo sapiens, UniProt Q9H2S1); assay: Positive modulation of SK2 (unknown origin)
[5] = AUC (0 to t) in fasted Sprague-Dawley rat at 2 mg/kg, iv measured upto 12 hrs by LC-MS/MS analysis; format: ADME, organism-based; set-up: dose 2 mg/kg, time < 12 hrs, route iv; conditions: in vivo
[6] = AUC (0 to t) in fasted Sprague-Dawley rat at 100 mg/kg, po measured upto 12 hrs by LC-MS/MS analysis; format: ADME, organism-based; set-up: time < 12 hrs, dose 100 mg/kg, route po; conditions: in vivo
[7] = Apparent volume of distribution during terminal phase in fasted Sprague-Dawley rat at 2 mg/kg, iv measured upto 12 hrs by LC-MS/MS analysis; format: ADME, organism-based; conditions: in vivo
[8] = Cmax in fasted Sprague-Dawley rat at 2 mg/kg, iv measured upto 12 hrs by LC-MS/MS analysis; format: ADME, organism-based; set-up: dose 2 mg/kg, time < 12 hrs, route iv; conditions: in vivo
[9] = MRT in fasted Sprague-Dawley rat at 2 mg/kg, iv measured upto 12 hrs by LC-MS/MS analysis; format: ADME, organism-based; conditions: in vivo
[10] = Cmax in fasted Sprague-Dawley rat at 100 mg/kg, po measured upto 12 hrs by LC-MS/MS analysis; format: ADME, organism-based; set-up: time < 12 hrs, dose 100 mg/kg, route po; conditions: in vivo
[11] = Half life in fasted Sprague-Dawley rat at 2 mg/kg, iv measured upto 12 hrs by LC-MS/MS analysis; format: ADME, organism-based; conditions: in vivo
[12] = MRT in fasted Sprague-Dawley rat at 100 mg/kg, po measured upto 12 hrs by LC-MS/MS analysis; format: ADME, organism-based; conditions: in vivo
HUVEC = assay: Cytotoxicity against HUVEC cells assessed as cell viability at 0.1 to 10000 nM incubated for 24 hrs by CCK8 assay; format: toxicity, cell-based; conditions: human, 10 µM, dose 0.1-10000 nM
[13] = Apparent oral clearance in fasted Sprague-Dawley rat at 100 mg/kg, po measured upto 12 hrs by LC-MS/MS analysis; format: ADME, organism-based; conditions: in vivo
[14] = Apparent volume of distribution during terminal phase in fasted Sprague-Dawley rat at 100 mg/kg, po measured upto 12 hrs by LC-MS/MS analysis; format: ADME, organism-based; conditions: in vivo, read-out: Vz/F
[15] = Tmax in fasted Sprague-Dawley rat at 100 mg/kg, po measured upto 12 hrs by LC-MS/MS analysis; format: ADME, organism-based; conditions: in vivo
[16] = Apparent permeability across apical to basal side in human BMEC cells at 10 ug/ml incubated for 24 hrs by BBB assay; format: ADME, cell-based; conditions: dose 10 µg/ml
[17] = Apparent oral clearance in fasted Sprague-Dawley rat at 2 mg/kg, iv measured upto 12 hrs by LC-MS/MS analysis; format: ADME, organism-based; conditions: in vivo
[18] = Oral bioavailability in fasted Sprague-Dawley rat at 100 mg/kg measured upto 12 hrs by LC-MS/MS analysis; format: ADME, organism-based; conditions: in vivo
[19] = AUC (0 to infinity) in fasted Sprague-Dawley rat at 2 mg/kg, iv measured upto 12 hrs by LC-MS/MS analysis; format: ADME, organism-based; set-up: time < 12 hrs, dose 2 mg/kg, route iv; conditions: in vivo
[20] = Half life in fasted Sprague-Dawley rat at 100 mg/kg, po measured upto 12 hrs by LC-MS/MS analysis; format: ADME, organism-based; conditions: in vivo
[21] = molecular target: T2, Small conductance calcium-activated potassium channel protein 2; assay: Positive modulation of SK2 in HEK293 cells in presence of Ca2+ by patch-clamp method; format: cell-based
[22] = molecular target: T1, Small conductance calcium-activated potassium channel protein 1; assay: Positive modulation of SK1 in HEK293 cells in presence of Ca2+ by patch-clamp method; format: cell-based
[23] = AUC (0 to infinity) in fasted Sprague-Dawley rat at 100 mg/kg, po measured upto 12 hrs by LC-MS/MS analysis; format: ADME, organism-based; set-up: time < 12 hrs, dose 100 mg/kg, route po; conditions: in vivo

T2 sequence (Q9H2S1 whole entry): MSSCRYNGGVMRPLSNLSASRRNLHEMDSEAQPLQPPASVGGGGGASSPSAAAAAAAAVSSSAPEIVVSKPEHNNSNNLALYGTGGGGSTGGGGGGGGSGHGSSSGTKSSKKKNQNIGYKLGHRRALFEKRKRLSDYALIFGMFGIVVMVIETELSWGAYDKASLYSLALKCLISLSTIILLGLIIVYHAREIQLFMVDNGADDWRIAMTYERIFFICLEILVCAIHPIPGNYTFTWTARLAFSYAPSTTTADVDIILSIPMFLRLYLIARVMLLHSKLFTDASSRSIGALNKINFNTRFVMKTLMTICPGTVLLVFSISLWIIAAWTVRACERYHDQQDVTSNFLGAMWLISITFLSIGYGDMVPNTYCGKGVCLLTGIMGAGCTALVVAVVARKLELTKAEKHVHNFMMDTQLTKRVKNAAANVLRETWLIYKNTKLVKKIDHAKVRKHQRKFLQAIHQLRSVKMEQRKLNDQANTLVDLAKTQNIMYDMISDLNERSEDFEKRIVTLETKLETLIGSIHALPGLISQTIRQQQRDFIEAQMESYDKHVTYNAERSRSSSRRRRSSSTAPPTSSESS
T1 sequence (Q92952 whole entry): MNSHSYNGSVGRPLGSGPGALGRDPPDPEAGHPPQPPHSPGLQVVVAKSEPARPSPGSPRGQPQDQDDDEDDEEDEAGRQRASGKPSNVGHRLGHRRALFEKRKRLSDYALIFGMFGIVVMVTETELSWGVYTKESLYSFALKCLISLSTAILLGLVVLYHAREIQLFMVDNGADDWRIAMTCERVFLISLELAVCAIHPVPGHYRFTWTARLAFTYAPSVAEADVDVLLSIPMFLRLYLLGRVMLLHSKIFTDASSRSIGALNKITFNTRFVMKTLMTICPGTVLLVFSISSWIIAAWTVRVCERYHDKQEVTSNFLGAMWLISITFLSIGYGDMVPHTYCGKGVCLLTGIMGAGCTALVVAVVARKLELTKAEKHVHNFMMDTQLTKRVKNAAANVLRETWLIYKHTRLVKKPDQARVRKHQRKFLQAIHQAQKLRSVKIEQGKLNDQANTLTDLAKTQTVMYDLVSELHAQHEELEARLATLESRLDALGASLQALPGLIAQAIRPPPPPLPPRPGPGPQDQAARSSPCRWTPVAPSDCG
Sequence of Small conductance calcium-activated potassium channel protein 3 (Q9UGI6 whole entry): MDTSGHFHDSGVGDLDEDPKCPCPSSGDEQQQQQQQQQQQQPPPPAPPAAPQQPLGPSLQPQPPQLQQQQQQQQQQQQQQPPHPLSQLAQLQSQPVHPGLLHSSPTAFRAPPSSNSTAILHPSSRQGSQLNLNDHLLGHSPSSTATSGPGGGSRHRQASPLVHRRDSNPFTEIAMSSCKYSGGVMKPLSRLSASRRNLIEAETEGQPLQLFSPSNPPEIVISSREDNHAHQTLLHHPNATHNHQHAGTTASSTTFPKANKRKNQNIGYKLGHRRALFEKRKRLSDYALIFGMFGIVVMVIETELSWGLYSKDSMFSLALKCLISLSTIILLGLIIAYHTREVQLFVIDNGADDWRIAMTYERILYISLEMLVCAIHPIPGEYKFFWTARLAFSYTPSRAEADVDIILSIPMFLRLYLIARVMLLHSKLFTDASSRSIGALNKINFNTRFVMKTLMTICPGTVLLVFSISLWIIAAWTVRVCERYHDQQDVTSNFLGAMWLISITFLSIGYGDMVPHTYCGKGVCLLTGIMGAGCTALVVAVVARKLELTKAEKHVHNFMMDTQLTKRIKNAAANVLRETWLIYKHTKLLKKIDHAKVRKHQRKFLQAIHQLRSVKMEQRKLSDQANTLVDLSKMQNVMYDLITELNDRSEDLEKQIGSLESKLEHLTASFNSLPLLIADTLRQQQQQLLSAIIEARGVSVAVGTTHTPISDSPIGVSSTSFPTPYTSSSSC

EC50 [1]: 0.48 µM
Compound: Cc1ccn(-c2nc(Nc3cccc(Br)c3)c3ccn(C)c3n2)n1

EC50 [1]: 6.54 µM
Compound: Cc1cccc(Nc2nc(-n3nc(C)cc3C)nc3c2ccn3C)c1

EC50 [1]: 13.7 µM
Compound: COc1ccc(Nc2nc(-n3nc(C)cc3C)nc3c2ccn3C)cc1

EC50 [1]: > 100 µM
Compound: COc1ccc(Nc2nc(-n3nc(C)cc3C)nc3sccc23)cc1

EC50 [1]: 2.28 µM
Compound: Cc1cc(C)n(-c2nc(NC3CCCCC3)c3ccn(C)c3n2)n1

EC50 [1]: 3.41 µM
Compound: Cc1cc(C)n(-c2nc(Nc3ccc(F)cc3)c3ccn(C)c3n2)n1

EC50 [2]: 5.6 µM | EC50 [3]: > 100 µM | EC50 [4]: 14 µM
Compound: Cc1cc(NC2CCCCC2)nc(-n2nc(C)cc2C)n1

EC50 [1]: 19.1 µM
Compound: Cc1cc(C)n(-c2nc(N(C)Cc3ccccc3)c3ccn(C)c3n2)n1

AUC(0-t) at 12 h [5]: 1110 ng·h/mL | AUCt ([6]; 12 h): 2427.989 ng·h/mL | Vz/F [7]: 6.111 L/kg | Cmax [8]: 1680 ng/mL | MRT [9]: 1.51 h | Cmax [10]: 488 ng/mL | half-life [11]: 2.63 h | MRT [12]: 3.37 h | CLz/F ([13]; po, 100 mg/kg, 12 h): 695.27 mL/min/kg | Vd/F [14]: 86.7 L/kg | Tmax [15]: 2.67 h | Papp A→B at 24 h, 10 ug/ml [16]: 3.07 ×10⁻⁶ cm/s | CLz/F [17]: 31.72 mL/min/kg | F ([18]; po, 100 mg/kg, 12 h): 23.6% | AUC ([19]; 12 h): 1168.28 ng·h/mL | half-life [20]: 1.43 h
Compound: Cc1ccn(-c2nc(Nc3ccc(F)cc3)c3ccn(C)c3n2)n1
Activity (HUVEC): Non-Toxic

EC50 [1]: 3.1 µM
Compound: Cc1ccc(Nc2nc(-n3nc(C)cc3C)nc3c2ccn3C)cc1

EC50 [1]: 4.08 µM
Compound: Cc1cc(C)n(-c2nc(Nc3cccc(C#N)c3)c3ccn(C)c3n2)n1

EC50 [1]: 29.8 µM
Compound: Cc1cc(C)n(-c2nc(Nc3ccc(Cl)c(C(F)(F)F)c3)c3c(ccn3C)n2)n1

EC50 [1]: 8.43 µM
Compound: Cc1cc(C)n(-c2nc(Nc3ccccc3)c3c(ccn3C)n2)n1

EC50 [1]: 3.65 µM
Compound: CCc1ccc(Nc2nc(-n3nc(C)cc3C)nc3ccn(C)c23)cc1

EC50 [1]: > 100 µM
Compound: Cc1cc(C)n(-c2nc(Nc3ccc(I)cc3)c3ccsc3n2)n1

EC50 [1]: 3.5 µM
Compound: Cc1cc(C)n(-c2nc(Nc3ccc(Cl)cc3)c3ccn(C)c3n2)n1

EC50 [1]: 4.31 µM
Compound: Cc1cc(C)n(-c2nc(Nc3ccccc3)c3ccn(C)c3n2)n1

EC50 [1]: 1.94 µM
Compound: Cc1cc(C)n(-c2nc(Nc3ccc(Br)cc3)c3ccn(C)c3n2)n1

EC50 [1]: > 100 µM
Compound: Cc1cc(C)n(-c2nc(Nc3ccc(Cl)cc3)c3ccsc3n2)n1

EC50 [1]: > 100 µM
Compound: Cc1cc(C)n(-c2nc(Nc3ccc(C(C)C)cc3)c3ccsc3n2)n1

EC50 [1]: 5.73 µM
Compound: Cc1cc(C)n(-c2nc(Nc3cccc([N+](=O)[O-])c3)c3ccn(C)c3n2)n1

EC50 [1]: > 100 µM
Compound: CCc1ccc(Nc2nc(-n3nc(C)cc3C)nc3sccc23)cc1

EC50 [1]: 20.4 µM
Compound: Cc1cc(C)n(-c2nc(Nc3cccc(C(F)(F)F)c3)c3c(ccn3C)n2)n1

EC50 [1]: 7.71 µM
Compound: Cc1cccc(Nc2nc(-n3nc(C)cc3C)nc3ccn(C)c23)c1

EC50 [1]: > 100 µM
Compound: Cc1ccc(Nc2nc(-n3nc(C)cc3C)nc3sccc23)cc1

EC50 [1]: > 100 µM
Compound: Cc1cc(C)n(-c2nc(NC3CCCCC3)c3ccsc3n2)n1

EC50 [21]: 1.8 µM | EC50 [22]: > 100 µM | Papp A→B at 24 h, 10 ug/ml [16]: 2.94 ×10⁻⁶ cm/s
Compound: Cc1cc(C)n(-c2nc(Nc3ccc(Cl)cc3)c3ncn(C)c3n2)n1

EC50 [1]: 2.97 µM
Compound: Cc1cc(C)n(-c2nc(Nc3cccc(C(C)C)c3)c3c(ccn3C)n2)n1

EC50 [1]: 6.52 µM
Compound: Cc1ccn(-c2nc(Nc3cccc(C(F)(F)F)c3)c3ccn(C)c3n2)n1

EC50 [1]: 1.73 µM
Compound: Cc1cc(C)n(-c2nc(Nc3cccc(Br)c3)c3c(ccn3C)n2)n1

EC50 [1]: 1.79 µM
Compound: Cc1cc(C)n(-c2nc(Nc3ccc(F)c(Cl)c3)c3ccn(C)c3n2)n1

EC50 [1]: > 100 µM
Compound: CCC(CC)Nc1nc(-n2nc(C)cc2C)nc2sccc12

EC50 [1]: 1.2 µM
Compound: Cc1cc(C)n(-c2nc(Nc3ccc(Cl)c(C(F)(F)F)c3)c3ccn(C)c3n2)n1

EC50 [1]: 8.34 µM
Compound: Cc1cc(C)n(-c2nc(Nc3ccccc3)c3ccsc3n2)n1

EC50 [1]: 6.78 µM
Compound: Cc1cc(C)n(-c2nc(Nc3ccc(F)cc3)c3ccsc3n2)n1

EC50 [1]: > 100 µM
Compound: Cc1cc(C)n(-c2nc(Nc3ccc(Br)cc3)c3ccsc3n2)n1

EC50 [1]: 3.81 µM
Compound: Cc1cc(C)n(-c2nc(Nc3ccc(C(C)C)cc3)c3ccn(C)c3n2)n1

AUC(0-t) at 12 h [5]: 1360 ng·h/mL | AUC(0-t) at 12 h ([6]; Sprague-Dawley): 2500 ng·h/mL | Vz/F [7]: 4.791 L/kg | Cmax [8]: 1620 ng/mL | MRT [9]: 1.5 h | Cmax [10]: 662 ng/mL | EC50 [1]: 0.73 µM | half-life [11]: 1.97 h | MRT [12]: 3.22 h | CL/F ([13]; Sprague-Dawley, read-out: CLz/F (converted)): 813 mL/min/kg | Vd/F [14]: 92.9 L/kg | Tmax [15]: 2.67 h | Papp A→B at 24 h, 10 ug/ml [16]: 3.23 ×10⁻⁶ cm/s | AUC(0-inf) [23]: 2510 ng·h/mL | CLz/F [17]: 26.8 mL/min/kg | bioavailability ([18]; Sprague-Dawley): 4.03% | AUC(0-inf) ([19]; Sprague-Dawley): 1370 ng·h/mL | half-life [20]: 1.25 h
Compound: Cc1cc(C)n(-c2nc(Nc3cccc(Br)c3)c3ccn(C)c3n2)n1
Activity (HUVEC): Non-Toxic

EC50 [1]: 0.5 µM
Compound: Cc1ccn(-c2nc(Nc3ccc(Cl)c(C(F)(F)F)c3)c3ccn(C)c3n2)n1

EC50 [1]: 1.6 µM
Compound: Cc1cc(C)n(-c2nc(Nc3cccc(C(F)(F)F)c3)c3ccn(C)c3n2)n1

EC50 [1]: > 100 µM
Compound: CCc1ccc(Nc2nc(-n3nc(C)cc3C)nc3c2ccn3C)cc1

EC50 [21]: 0.8 µM | EC50 [22]: 0.6 µM
Compound: O=C1Nc2c(ccc(Cl)c2Cl)C1=NO

Source: ChEMBL document CHEMBL5325425, “Design, synthesis and biological evaluation of pyrrolopyrimidine derivatives as novel and selective positive modulator of the small conductance Ca2+-activated K+ channels” (Eur J Med Chem, 2023)
